Values of other authors, collected in publication PMC8522729 (Antimicrobial Agents and Chemotherapy, 2021).

Test system: M. tuberculosis
Conditions: cited from earlier work

In the case of `O=C1CCc2c(OC[C@]3(O)CCN(c4c(F)cc(Cl)cc4F)C[C@H]3O)ccc(F)c2N1` [OPC-167832], the frequency of resistance is given as < 1.9 × 10^−7.
